# Like-named read-outs stand apart in the source and are kept apart here.
# Tested on: Per2-Luc reporter U2OS cells (D15)
# Experiment: Circadian phase shift cell assay in D15 cells, 384 well plate, Tecan, with or without pentostatin
# Format: cell-based, human
# Conditions: for minimal effective concentration: read-out: Cell Assay; for With Pentostadin Cell Assay: pentostatin 5 μg/ml; for amplitude effect, Per2:luc signal versus control / period effect: under the concentration of 100 μM
# [1] = Homo sapiens, U2OS, without pentostatin, concentration that shifts the circadian phase
# [2] = concentration that shifts the circadian phase
# [3] = without pentostatin, concentration that shifts the circadian phase
Compound,minimal effective concentration [1] [µM],With Pentostadin Cell Assay [2] [µM],also measured
Nc1ncnc2c1ncn2[C@@H]1O[C@H](CO)CC1O (stereo partly shown),25,0.5,
Nc1ncnc2c1ncn2[C@@H]1O[C@H](CO)C(O)C1O (stereo partly shown),12.5,0.5,
OC[C@H]1O[C@@H](n2cnc3c(NC4CC4)ncnc32)C(O)C1O (stereo partly shown),100,,
OC[C@H]1O[C@@H](n2cnc3c(Cl)cc(Cl)nc32)C(O)C1O (stereo partly shown),100,,
Nc1ncnc2c1ccn2[C@@H]1OC[C@@H](O)[C@H](O)[C@H]1O,100,,
Nc1ncnc2c1ncn2[C@@H]1O[C@H](CO)CC1OC(=O)CCCC[C@@H]1SC[C@@H]2NC(=O)N[C@@H]21 (stereo partly shown),> 500,1.5,
Nc1ncnc2c1ncn2[C@@H]1O[C@H](COC(=O)CCCC[C@@H]2SC[C@@H]3NC(=O)N[C@@H]32)CC1OC(=O)CCCC[C@@H]1SC[C@@H]2NC(=O)N[C@@H]21 (stereo partly shown),> 500,12.5,
O=C1N[C@H]2[C@H](CS[C@H]2CCCCC(=O)OC[C@H]2O[C@@H](n3cnc4cc(Cl)c(Cl)cc43)C(O)C2O)N1 (stereo partly shown),40,,
Nc1ncnc2c1ncn2[C@@H]1O[C@H](COC(=O)CCCC[C@@H]2SC[C@@H]3NC(=O)N[C@@H]32)C(O)C1O (stereo partly shown),> 500,2,
Nc1ncnc2c1ncn2[C@@H]1O[C@H](CO)C(O)C1OC(=O)CCCC[C@@H]1SC[C@@H]2NC(=O)N[C@@H]21 (stereo partly shown),> 500,2,
Nc1ncnc2c1ncn2[C@@H]1O[C@H](COC(=O)CCCC[C@@H]2SC[C@@H]3NC(=O)N[C@@H]32)C(O)C1OC(=O)CCCC[C@@H]1SC[C@@H]2NC(=O)N[C@@H]21 (stereo partly shown),> 500,25,
OC[C@@H]1CC(O)[C@H](n2cnc3cc(Cl)c(Cl)cc32)O1 (stereo partly shown),10,,
Nc1ncnc2c1ncn2[C@@H]1O[C@H](CO)C2OC21 (stereo partly shown),3,,
Nc1nc2c([nH]c(=S)n2[C@@H]2O[C@H](CO)C(O)C2O)c(=O)[nH]1 (stereo partly shown),100,,
CNc1nc2c(=O)[nH]c(N)nc2n1[C@@H]1O[C@H](CO)C(O)C1O (stereo partly shown),100,,
Nc1ncnc2c1c(I)cn2[C@@H]1O[C@H](CO)C(O)C1O (stereo partly shown),,,"minimal effective concentration (Homo sapiens, U2OS): 0.3 µM"
OC[C@H]1O[C@@H](n2cnc3c(NCc4ccccc4)ncnc32)C(O)C1O (stereo partly shown),10,10,
Nc1nccc2c1ncn2[C@@H]1O[C@H](CO)C(O)C1O (stereo partly shown),50,50,
O=P(O)(O)OP(=O)(O)OP(=O)(O)OC[C@H]1O[C@@H](n2cnc3c(NCc4ccccc4)ncnc32)[C@H](O)[C@@H]1O,10,,
Cc1cccc(Cc2nn(C(C)(C)C)c3ncnc(N)c23)c1,10,,
OC[C@H]1O[C@@H](n2cnc3c(Nc4cccc(O)c4)ncnc32)C(O)C1O (stereo partly shown),200,,
CNC(=O)c1cnn(-c2nc(N)c3ncn([C@@H]4O[C@H](CO)C(O)C4O)c3n2)c1 (stereo partly shown),100,,
Nc1ncnc2c1ncn2[C@@H]1O[C@@H]2COP(=O)(O)OC2C1O (stereo partly shown),,,"minimal effective concentration (Homo sapiens, U2OS): 200 µM"

Compound,minimal effective concentration [1] [µM],With Pentostadin Cell Assay [2] [µM],also measured
Nc1ncnc2c1ncn2[C@@H]1O[C@H](COP(=O)(O)OP(=O)(O)OP(=O)(O)O)CC1O (stereo partly shown),100,,
Nc1ncnc2c1ncn2[C@H]1CC[C@@H](CO)O1,200,,
Nc1ncnc2c1ncn2[C@@H]1O[C@H](COP(=O)(O)O)CC1O (stereo partly shown),100,,
Nc1nc(NC2CC2)c2ncn([C@H]3C=C[C@@H](CO)O3)c2n1,400,,
[N-]=[N+]=NC[C@@H]1CC(O)[C@H](n2cnc3c(N)ncnc32)O1 (stereo partly shown),500,25,
Nc1ncnc2c1ccn2[C@@H]1O[C@H](CO)CC1O (stereo partly shown),200,25,
Nc1ncnc2c1ncn2[C@@H]1O[C@H](CO)[C@H](OC(=O)CCCC[C@@H]2SC[C@@H]3NC(=O)N[C@@H]32)[C@H]1O,> 500,25,
C=C[C@@H]1CC(O)[C@H](n2cnc3c(N)ncnc32)O1 (stereo partly shown),200,25,
Nc1cc(Cl)nc2c1ncn2[C@@H]1O[C@H](CO)C(O)C1O (stereo partly shown),> 500,100,
Nc1ncnc2c1ncn2[C@@H]1O[C@H](C2NN2)CC1O (stereo partly shown),,100,"minimal effective concentration (Homo sapiens, U2OS): > 500 µM"
COc1nc(N)c2ncn([C@@H]3O[C@H](CO)C(O)C3O)c2n1 (stereo partly shown),> 500,100,
Nc1nc(N)c2ncn([C@@H]3O[C@H](CO)C(O)C3O)c2n1 (stereo partly shown),> 500,100,
Nc1nc(F)nc2c1ncn2[C@@H]1O[C@H](CO)C(O)C1O (stereo partly shown),50,,
Nc1ncnc2c1c(Br)c(Br)n2[C@@H]1O[C@H](CO)[C@H](O)[C@H]1O,> 500,100,
Nc1ncnc2c1c(Br)c(Br)n2[C@@H]1O[C@H](CO)C[C@H]1O,> 500,100,
Nc1ncnc2c1c(Br)cn2[C@H]1O[C@H](CO)[C@H](O)[C@H]1O,> 500,50,
Nc1ncnc2c1nc(Br)n2[C@@H]1O[C@H](CO)[C@H](O)[C@H]1O,> 500,100,
COc1cc2c(N)ncnc2n1[C@@H]1O[C@H](CO)[C@H](O)[C@H]1O,> 500,100,
Nc1ncnc2c1cc(Br)n2[C@@H]1O[C@H](CO)[C@H](O)[C@H]1O,> 500,100,
Nc1ncnc2c1cc(Br)n2[C@@H]1O[C@H](CO)C[C@H]1O,> 500,100,
Nc1ncnc2c1c(F)c(Br)n2[C@@H]1O[C@H](CO)[C@H](O)[C@H]1O,> 500,100,
Nc1ncnc2c1nc(Br)n2[C@@H]1O[C@H](CO)C[C@H]1O,> 500,100,
Nc1ncnc2c1c(F)cn2[C@@H]1O[C@H](CO)[C@H](O)[C@H]1O,> 500,100,

Compound,minimal effective concentration [1] [µM],With Pentostadin Cell Assay [2] [µM],also measured
Nc1nc(Br)nc2c1ncn2[C@@H]1O[C@H](CO)C[C@H]1O,> 500,100,
Nc1ncnc2c1c(F)cn2[C@H]1O[C@H](CO)[C@H](O)[C@H]1O,> 500,100,
Nc1nccc2c1ncn2[C@@H]1O[C@H](CO)[C@H](O)[C@H]1O,> 500,100,
CC1(CCC(=O)O[C@@H]2[C@H](O)[C@@H](COC(=O)CCCC(=O)NCCCOCCOCCOCCCNC(=O)CCCC[C@H]3SC[C@H]4NC(=O)N[C@H]43)O[C@H]2n2cnc3c(N)ncnc32)N=N1,> 500,100,
CC1(CCC(=O)O[C@@H]2[C@@H](O)[C@H](n3cnc4c(N)ncnc43)O[C@@H]2COC(=O)CCCC(=O)NCCCOCCOCCOCCCNC(=O)CCCC[C@H]2SC[C@H]3NC(=O)N[C@H]32)N=N1,> 500,100,
Nc1ncnc2c1ncn2[C@@H]1O[C@H]([C@H](O)CO)[C@H](O)[C@H]1O,> 500,200,
C#CC(O)C1O[C@@H](n2cnc3c(N)ncnc32)[C@H](O)[C@H]1O (stereo partly shown),> 500,100,
Nc1ncnc2c1c(Br)cn2[C@H]1O[C@H](CO)C[C@H]1O,> 500,200,
Nc1nc(F)nc2c1nc(F)n2[C@@H]1O[C@H](CO)[C@H](O)[C@H]1O,> 500,200,
Nc1ncnc2c1ncn2[C@@H]1O[C@@H]2COC2[C@H]1O (stereo partly shown),> 500,100,
[2H]c1nc(N)c2nc([2H])n([C@@H]3O[C@H](CO)C[C@H]3O)c2n1,25,12.5,
"Nc1ncnc2c1ncn2[C@@H]1O[C@H](CO)[C@H](O)[C@H]1O [NQZ-007, 9-(β-D-xylofuranosyl)-adenine]",,,concentration of eliciting 12 h phase shift (potency) (pentostatin containing medium (5 μg/ml)): 0.2 µM; concentration of eliciting 12 h phase shift (potency) (without pentostatin): 25 µM
CCCCCCCC(=O)Nc1ncnc2c1ncn2[C@@H]1O[C@H](CO)[C@H](O)[C@H]1O [NQZ-163],,,"amplitude effect, Per2:luc signal versus control: more than two fold of control"
Nc1ncnc2c1c(Br)cn2[C@@H]1O[C@H](CO)[C@H](O)[C@H]1O [NQZ-168],,,period effect: elongation period effect
Nc1ncnc2c1c(Br)cn2[C@@H]1O[C@H](CO)C[C@H]1O [NQZ-194],,,"amplitude effect, Per2:luc signal versus control: more than two fold of control"
OC[C@H]1O[C@@H](n2c(F)nc3c(F)nc(F)nc32)[C@H](O)[C@H]1O [NQZ-195],,,period effect: elongation period effect
[2H]c1nc(N)c2nc([2H])n([C@@H]3O[C@H](CO)[C@H](O)[C@H]3O)c2n1 [NQZ-198],,,"amplitude effect, Per2:luc signal versus control: more than two fold of control"
OC[C@H]1O[C@@H](n2cnc3cc(Cl)c(Cl)cc32)C(O)C1O (stereo partly shown) [drawing 284],,,minimal effective concentration [3]: 10 µM
OC[C@H]1O[C@@H](n2cnc3cc(Cl)c(Cl)cc32)C(O)C1O (stereo partly shown) [drawing 289],10,10,
Nc1ncnc2c1ncn2[C@@H]1O[C@H](COC(=O)CCCC[C@@H]2SC[C@@H]3NC(=O)N[C@@H]32)CC1O (stereo partly shown) [drawing 290],,6,minimal effective concentration [3]: >500 µM
O=C(CCCC[C@@H]1SC[C@@H]2NC(=O)N[C@@H]21)Nc1ncnc2c1ncn2[C@@H]1O[C@H](CO)CC1O (stereo partly shown) [drawing 292],,25,minimal effective concentration [3]: >500 µM

# — US12667584B2, “Adenosine analog and its use in regulating the circadian clock” (NATIONAL INSTITUTE OF BIOLOGICAL SCIENCES, BEIJING, priority 2017, dated 2026)
